Patent publication US20260248787A9, “MEDICAMENT FOR TREATING CANCER COMPRISING OPTICALLY ACTIVE AZABICYCLO RING DERIVATIVE” (Sumitomo Pharma Co., Ltd., priority 2023, published 2026)

How the values were obtained:
MOLM-13 cells [1] = test: Tumor-bearing mice transplanted with MOLM-13 cells, with venetoclax and azacitidine, T/C (Example 10); type: in vivo; conditions: MOLM-13 tumor-bearing mice, oral, 15 days
Procedure: (§1) The present compound was weighed and dissolved in 0.5 w/v % Methyl Cellulose 400 solution to give the compound concentrations of 20 mg/mL and 10 mg/mL. Venetoclax was weighed and suspended in a mixed solution of Phosal 50 propylene glycol (60%)/Polyethylene glycol-400 (30%)/Ethanol (10%) to give the compound concentration of 5 mg/mL. Azacitidine was weighed and dissolved in saline to give the compound concentration of 0.3 mg/mL.
MOLM-13 cells (DSMZ) were intradermally implanted around the ventral region of 5-week old NOD. CB17-PrkdcSCID/J mice (female, The Jackson Laboratory Japan) at 1×10^6 cells/mouse. […] The tumor volume was measured over time from the start of the administration, and the reduction effect of the tumor volume due to the compound-administration was evaluated. The tumor volume was calculated by the following formula using short axis and long axis of the tumor measured with an electronic caliper (Mitutoyo).
(§2) The control administration group in which only the solvent was administered and the test substance administration group were compared, and T/C was calculated using the following formula to evaluate the antitumor effect.

OCI-AML3 cells = test: Tumor-bearing mice transplanted with OCI-AML3 cells, with venetoclax and azacitidine, T/C (Example 13); type: in vivo; conditions: oral, 21 days
Procedure: as §1
OCI-AML3 cells (DSMZ) were intradermally implanted around the ventral region of 6-week old NOD. CB17-PrkdcSCID/J mice (female, The Jackson Laboratory Japan) at 1×10^6 cells/mouse. […] The tumor volume was measured over time from the start of the administration, and the reduction effect of the tumor volume due to the compound-administration was evaluated. The tumor volume was calculated by the following formula using short axis and long axis of the tumor measured with an electronic caliper (Mitutoyo).
as §2

[2] = human, in vivo
MOLM-13 cells [3] = test: Tumor-bearing mice transplanted with MOLM-13 cells, with cytarabine and daunorubicin, T/C (Example 11); type: in vivo; conditions: MOLM-13 tumor-bearing mice, oral, 17 days
Procedure: Cytarabine (Cylocide Injection 200 mg/10 mL, Nippon Shinyaku Co., Ltd.) was diluted with saline (Otsuka Saline Injection, Otsuka Pharmaceutical Factory Co., Ltd.) to 8 mg/mL. Daunorubicin (Daunomycin for injection 20 mg, Meiji, Seika Pharma Co., Ltd.) was dissolved in saline (Otsuka Saline Injection, Otsuka Pharmaceutical Factory Co., Ltd.) to 0.2 mg/mL.
MOLM-13 cells (DSMZ) were intradermally implanted around the ventral region of 8-week old NOD. CB17-PrkdcSCID/J mice (female, The Jackson Laboratory Japan) at 1×10^6 cells/mouse. […] Cytarabine was intraperitoneally administered to the mice at a dose of 80 mg/kg once a day for 5 days. Daunorubicin was intravenously administered to the mice at a dose of 1 mg/kg once a day for 3 days. The tumor volume was measured over time from the start of the administration, and the reduction effect of the tumor volume due to the compound-administration was evaluated. The tumor volume was calculated by the following formula using short axis and long axis of the tumor measured with an electronic caliper (Mitutoyo).
as §2

[4] = system: HOXA9, MEIS1, PBX3, CD11b gene expression; test: Phase 1/2 clinical study, pharmacodynamic gene expression biomarkers in bone marrow aspirate; type: in vivo, human
Source text: All dose levels and time points are combined.
(2) FIGS. 6A and 6B show average of the maximum percentage change of gene expression of leukemic (HOXA9, MEIS1, PBX3) and differentiation (CD11b) biomarkers in bone marrow aspirate of patients from all dose levels, for whom a baseline and post-baseline sample were collected.

[5] = system: acute leukemia with MLLr or NPM1m; test: Phase 1/2 clinical study, clinical activity (responses by ELN 2017); type: in vivo, human
[6] = patients with MLLr or NPM1m AML, all dose levels and time points (FIG. 5)
[7] = patients with target mutations, all dose levels (FIGS. 6A, 6B)
[8] = patients, notable with MLLr or NPM1m (Example 3)
[9] = MLLr + NPM1m, ≥140 mg BID, n=21

Compound: C=C1C[C@@H]2CC[C@H]1[C@@H](C(=O)N1CCC3(CC1)CN(c1ncncc1Oc1ccc(F)cc1C(=O)N(C(C)C)C(C)C)C3)N2 [the present compound, 5-fluoro-2-[(4-{7-[(1S,3S,4R)-5-methylidene-2-azabicyclo[2.2.2]octane-3-carbonyl]-2,7-diazaspiro[3.5]nonan-2-yl}pyrimidin-5-yl)oxy]-N,N-di(propan-2-yl)benzamide]
- T/C (MOLM-13 cells [1]; 100 mg/kg): 22.6%
- T/C (MOLM-13 cells [1]; 200 mg/kg): 8.4%
- T/C (OCI-AML3 cells; 100 mg/kg): 47.1%
- T/C (OCI-AML3 cells; 200 mg/kg): 34.3%
- SAE COVID-19, CTCAE Grade [2]: 3
- T/C (MOLM-13 cells [3]; 100 mg/kg): 29.8%
- T/C (MOLM-13 cells [3]; 200 mg/kg): 0.3%
- gene expression of CD11b in bone marrow aspirate [4, 6]: increases
- gene expression of HOXA9, PBX3 and MEIS1 in bone marrow aspirate [4, 6]: Clear decreases
- gene expression of CD11b in bone marrow aspirate [4, 7]: increases
- gene expression of HOXA9, PBX3 and MEIS1 in bone marrow aspirate [4, 7]: Clear decreases
- change in CD11b [4, 8]: increases
- change in HOXA9, PBX3 and MEIS1 [4, 8]: decreases
- responders per ELN 2017 ([5]; 43 enrolled, MLLr or NPM1m, 19 evaluable): 5 responders
- objective response rate (ORR) by ELN 2017 (CR+CRi+MLFS) ([5]; MLLr (20 AML, 2 ALL), ≥140 mg BID, no prior menin inhibitor (13/22)): 59.1%
- CR + CRh (ELN 2017) [5, 9]: 5 (24%) n (%)
- Composite CR (ELN 2017) [5, 9]: 7 (33%) n (%)
- Objective Response Rate (ELN 2017) [5, 9]: 12 (57%) n (%)
- CR+CRh ([5]; MLLr or NPM1m, all dose levels 40-300 mg BID, prior menin inhibitor naïve, finished 1 cycle (6/38)): 16%
- ORR ([5]; MLLr or NPM1m, all dose levels 40-300 mg BID, prior menin inhibitor naïve, finished 1 cycle (12/38)): 32%
- CR+CRh rate ([5]; MLLr or NPM1m, ≥140 mg BID, prior menin inhibitor naïve, finished 1 cycle (5/22)): 23%
- ORR (CR+CRi+MLFS) ([5]; MLLr or NPM1m, ≥140 mg BID, prior menin inhibitor naïve, finished 1 cycle (10/22)): 45%
- CR+CRh ([5]; MLLr, ≥140 mg BID (2/12 patients)): 17%
- Objective Response Rate (ORR; CR+CRh+CRi+MLFS) ([5]; MLLr, ≥140 mg BID (8/12 patients)): 67%
- CR + CRh (ELN 2017) ([5]; MLLr, ≥140 mg BID, n=12): 2 (17%) n (%)
- Composite CR (ELN 2017) ([5]; MLLr, ≥140 mg BID, n=12): 5 (42%) n (%)
- Objective Response Rate (ELN 2017) ([5]; MLLr, ≥140 mg BID, n=12): 8 (67%) n (%)
- CR+CRh ([5]; MLLr, ≥140 mg BID, no prior menin inhibitor (5/22)): 22.7%
- CR+CRh ([5]; NPM1m AML, ≥140 mg BID, no prior menin inhibitor (3/13)): 23.1%
- ORR ([5]; NPM1m AML, ≥140 mg BID, no prior menin inhibitor (7/13)): 53.8%
- CR+CRh ([5]; NPM1m, ≥140 mg BID (3/9 patients)): 33%
- ORR ([5]; NPM1m, ≥140 mg BID (4/9 patients)): 44%
- CR + CRh (ELN 2017) ([5]; NPM1m, ≥140 mg BID, n=9): 3 (33%) n (%)
- Composite CR (ELN 2017) ([5]; NPM1m, ≥140 mg BID, n=9): 3 (33%) n (%)
- Objective Response Rate (ELN 2017) ([5]; NPM1m, ≥140 mg BID, n=9): 4 (44%) n (%)
- response achieved (ELN 2017) ([5]; a patient with MLLr, 120 mg BID Arm A): MLFS
- additional patients with MLLr with response per ELN2017 (CRh/CRi and MLFS) ([5]; lower dose levels): Two
- median time to CR+CRh ([5]; overall, ≥140 mg BID): 1.0 months
- median time to objective response ([5]; overall, ≥140 mg BID): 1.0 months
- Bone marrow blast reduction ([5]; patients with MLLr or NPM1m (FIG. 8)): observed
